# Data reported in article PMC11784839, “Monoaminergic neurotransmitters are bimodal effectors of tau aggregation” (Science Advances, 2025).
# Biological target: tau (Homo sapiens, UniProt P10636)
# Experiment: MCE Phenols Library screening, tau biosensor cell seeding assay (AvZ)
# Assay type: cell-based
# Conditions: for Z repl 1 / Z Repl 2: Z score; for Z repl 1 / raw data 1: replicate 1; for Z Repl 2 / raw data 2: replicate 2; for AvZ (average z score of seeding, SDs from the mean level of seeding): 10 μM phenol in cell cultures, AD brain homogenate preincubated 16 hours, two biological replicates, positive = catalyzes seeding, negative = inhibits
# [1] = average Z score of the two replicates, MCE Phenols Library screen
# [2] = average puncta of the two replicates
# [3] = average Z score of the two replicates, tau seeding
# [4] = average Z score of the two replicates, tau biosensor seeding, MCE Phenols Library screen
# [5] = average Z score of two replicates, Phenols Library screen
# tau, sequence (P10636 623-695 limits assumed): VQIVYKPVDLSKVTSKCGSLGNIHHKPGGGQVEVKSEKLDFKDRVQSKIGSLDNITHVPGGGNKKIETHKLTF
SMILES,Z repl 1,Z Repl 2,av Z [1],av puncta [2],raw data 1 (raw puncta),raw data 2 (raw puncta),av Z [3],av puncta (average of raw data 1 and 2),raw data 1 (puncta),raw data 2 (puncta),av Z [4],"AvZ (average z score of seeding, SDs from the mean level of seeding)",av Z [5]
CC(C)=CCc1c(-c2ccc(O)cc2O)oc2c3c(cc(O)c2c1=O)OC(C)(C)C=C3 [Morusin],-0.601,-0.306,-0.454,14314.5,19129.3,9499.74,,,,,,,
COc1cc2oc(-c3ccccc3)cc(=O)c2c(O)c1OC [Mosloflavone],0.192,0.208,,,,,0.2,21820.5,28649.1,14991.8,,,
OC[C@H]1O[C@@H](Oc2cc(O)cc(/C=C/c3ccc(O[C@@H]4O[C@H](CO)[C@@H](O)[C@H](O)[C@H]4O)cc3O)c2)[C@H](O)[C@@H](O)[C@@H]1O [Mulberroside A],-0.183,-0.34,-0.262,16641.5,24150.5,9132.57,,,,,,,
C=CCc1cc(OC)c(O[C@@H](C)[C@H](O)c2ccc(O)c(OC)c2)c(OC)c1 [Myrislignan],1.234,0.299,,,,,,28560.9,41167.3,15954.5,0.766,,
"NCC(c1ccc(O)cc1)C1(O)CCCCC1 (stereo not drawn) [N,N,O-Tridesmethylvenlafaxine]",0.959,0.951,,,,,,30393,37867.4,22918.7,,0.955,
O=C(/C=C/c1ccc(O)cc1)NCCc1c[nH]c2ccc(O)cc12 [N-(p-Coumaroyl) Serotonin],0.332,-0.702,,,,,,17799.1,30331,5267.16,,-0.185,
CC(=O)NCCc1c[nH]c2ccc(O)cc12 [N-Acetyl-5-hydroxytryptamine],0.285,-0.756,,17233.8,29776.2,4691.42,,,,,,-0.235,
CC(=O)N[C@@H](Cc1ccc(O)cc1)C(=O)O [N-Acetyl-L-tyrosine],-0.073,-0.875,,14449.6,,,,,25475.6,3423.63,,-0.474,
O=C1C=CC(=O)c2c(O)ccc(O)c21 [Naphthazarin],-0.196,-0.791,-0.494,14154.5,,,,,23991,4318.06,,,
O=C1N[C@@H]2C(=C[C@H](O)[C@@H](O)[C@H]2O)c2cc3c(c(O)c21)OCO3 [Narciclasine],-2.127,-0.234,-1.181,,,,,5540.49,817.989,10263,,,
COc1cc(-c2oc3cc(O)cc(O)c3c(=O)c2O[C@@H]2O[C@H](CO[C@@H]3O[C@@H](C)[C@H](O)[C@@H](O)[C@H]3O)[C@@H](O)[C@H](O)[C@H]2O)ccc1O [Narcissin],0.249,-0.653,-0.202,17563.5,29338.6,5788.5,,,,,,,
O=C(/C=C/c1ccc(O)cc1)c1c(O)cc(O)cc1O [Naringenin chalcone],-1.271,-0.404,-0.838,,,,,9770.58,11089.3,8451.87,,,
COc1cc2oc(-c3ccccc3)cc(=O)c2c(O)c1O [Negletein],-1.009,-0.535,-0.772,,,,,10644.7,14234.4,7055.07,,,
CC(C)=CCc1cc(-c2coc3cc(O)ccc3c2=O)ccc1O [Neobavaisoflavone],0.415,-0.147,,,,,0.134,21263.5,31334.3,11192.7,,,
O=C(/C=C/c1ccc(O)c(O)c1)O[C@@H]1C[C@@](O)(C(=O)O)C[C@@H](O)[C@@H]1O [Neochlorogenic acid],-0.752,-0.408,-0.58,12870.1,,,,,17326.7,8413.44,,,
COc1ccc(-c2cc(=O)c3c(O)cc(O[C@@H]4O[C@H](CO)[C@@H](O)[C@H](O)[C@H]4O[C@@H]4O[C@@H](C)[C@H](O)[C@@H](O)[C@H]4O)cc3o2)cc1O [Neodiosmin],1.202,0.25,,,,,,28108.4,40782.2,15434.5,0.726,,
COc1ccc(CCC(=O)c2c(O)cc(O[C@@H]3O[C@H](CO)[C@@H](O)[C@H](O)[C@H]3O[C@@H]3O[C@@H](C)[C@H](O)[C@@H](O)[C@H]3O)cc2O)cc1O [Neohesperidin dihydrochalcone],-0.172,-0.225,-0.198,17327.7,24288.2,10367.2,,,,,,,
C[C@@H]1O[C@@H](O[C@H]2C(=O)c3c(O)cc(O)cc3O[C@H]2c2ccc(O)c(O)c2)[C@H](O)[C@H](O)[C@H]1O [Neoisoastilbin],0.661,0.303,,,,,0.482,25148.1,34290.2,16006,,,
O=C(/C=C/c1ccc(O)cc1)c1ccc(O[C@@H]2O[C@H](CO)[C@@H](O)[C@H](O)[C@H]2O)cc1O [Neoisoliquiritin],-0.046,0.369,,,,,0.161,21249.5,25794.8,16704.1,,,
O=C1C[C@@H](c2ccc(O)cc2)Oc2cc(O[C@@H]3O[C@H](CO)[C@@H](O)[C@H](O)[C@H]3O)ccc21 [Neoliquiritin],-0.356,-0.555,-0.455,14458.7,,,,,22080.4,6836.97,,,
COc1c(O)cc2oc(-c3ccc(O)c(O)c3)cc(=O)c2c1O [Nepetin],-0.728,-0.807,-0.768,,,,,10877.8,17608.6,4146.93,,,
CC(=O)c1c(C)cc2cccc(O)c2c1O [Nepodin],-0.364,0.129,,,,,,18059,21978.8,14139.2,,,-0.118
COc1ccc(-c2cc(=O)c3c(O)c(OC)c(O)c(OC)c3o2)cc1 [Nevadensin],-0.55,-0.108,-0.329,15677.7,19746.6,11608.9,,,,,,,
O=C1O[C@@H]2[C@@H](O)[C@H](O)[C@@H](CO)O[C@H]2c2c1cc(O)c(O)c2O [Norbergenin],-0.528,0.442,,,,,,18743.5,20005.8,17481.2,,,-0.043
COc1cc(CNC(=O)CCCCCC(C)C)ccc1O [Nordihydrocapsaicin],-0.001,-0.682,,15905.5,26333.1,5477.91,,,,,,-0.342,
